{"source": "patent US7303887B2", "about": "“Mule: Mcl-1 ubiquitination ligase E3” (Board of Regents, The University of Texas System, priority 2005, dated 2007)", "key": {"proteasome": {"system": "proteasome", "assay": "Western blotting for Mcl-1 in Hela cells treated with proteasome inhibitor", "format": "cell-based, human", "details": "anti-Mcl-1 western blotting", "text": "Proteins targeted for proteasome degradation are usually modified by a poly-ubiquitin chain (Hershko and Ciechanover, 1998). To test whether Mcl-1 is ubiquitinated, we treated Hela cells with a proteasome inhibitor MG132 to block the proteasome activity and performed western blotting analysis for Mcl-1 to test for the accumulation of higher molecular weight forms that could be ubiquitin modified. […] To verify these higher molecular weight bands were indeed caused by polyubiquitin conjugation of Mcl-1, the protein was immunoprecipitated by an anti-Mcl-1 antibody and the immuno-precipitate was probed by an anti-ubiquitin antibody."}, "Mcl-1 and Mule": {"system": "Mcl-1 and Mule", "assay": "Co-immunoprecipitation of Mule with Flag-Mcl-1 from Flag-Mcl-1 expressing cells", "format": "cell-based", "details": "anti-Flag immunoprecipitation", "text": "We next tested whether Mule interacts with Mcl-1 in vivo. Cell extracts from Flag-Mcl-1 expressing cells were immunoprecipitated with an anti-Flag monoclonal antibody. The immunoprecipitates were then subjected to SDS-PAGE and immunoblotted with antibodies against Flag or Mule. The antibody against Flag precipitated Flag-Mcl-1 in Flag-Mcl-1 expressing cells but not in the control cells. The Flag antibody also precipitated Mule, and the amount of co-precipitated Mcl-1 and Mule increased upon treatment with the proteasome inhibitor MG132."}, "U2OS cells [1]": {"system": "U2OS cells", "assay": "Cell death induced by DNA damaging agents with Mule knocked down", "format": "cell-based, human", "details": "for cell death induced by the agent: Mule knocked down versus not", "protocol": "The Mule shRNA construct was co-transfected with tetracycline repressor expression construct into 5×10^5 attached U2OS cells grown in DMEM with 10% FBS using Lipofectamine transfection reagent (Invitrogen) according to the manufacturer's protocol. One day later, the cells were selected against 1 μg/ml blasticidine and 2 μg/ml puromycin. After two weeks, individual clones were lifted and tested for expression of tetracycline repressor. Positive clones were further tested for Mule shRNA expression. Clones were treated with 2 μg/ml tetracycline for 3 days. Cell extracts were collected and subjected to 6% SDS-PAGE and western blotting with anti-Mule monoclonal antibody. Clones with the best inducible knock down of Mule were chosen for further experiments. […] We then treated cells with their Mule level knocked down with several DNA damaging agents including UV-irradiation and two commonly used chemotherapeutic drugs etoposide and cisplatin. […] We therefore performed a detailed biochemical analysis in cells treated with this drug with or without Mule knocked down."}, "caspase-3": {"system": "caspase-3", "assay": "Caspase-3 activation (cleavage) and PARP cleavage after cisplatin treatment", "format": "cell-based, human", "text": "We then treated cells with their Mule level knocked down with several DNA damaging agents including UV-irradiation and two commonly used chemotherapeutic drugs etoposide and cisplatin. […] We therefore performed a detailed biochemical analysis in cells treated with this drug with or without Mule knocked down."}, "U2OS cells [2]": {"system": "U2OS cells", "assay": "Colony growth 8 days after 6 hours of cisplatin treatment", "format": "cell-based, human", "details": "6 hours treatment, 8 days culture", "protocol": "To test whether the delayed apoptosis when Mule was knocked down has a long last effect, cells were switched to fresh medium after 6 hours of cisplatin treatment and continued culture for 8 days."}, "Mule (Homo sapiens)": {"biological_target": "T1, Mule (Homo sapiens)", "T1 construct": "The cDNA of full-length human Mule was subcloned into Sal I and Not I sites of pFastBac-1; made in house; host or cells: Sf21 insect cells, baculovirus (pFastBac-1)", "T1 sequence (Q07820 whole entry)": "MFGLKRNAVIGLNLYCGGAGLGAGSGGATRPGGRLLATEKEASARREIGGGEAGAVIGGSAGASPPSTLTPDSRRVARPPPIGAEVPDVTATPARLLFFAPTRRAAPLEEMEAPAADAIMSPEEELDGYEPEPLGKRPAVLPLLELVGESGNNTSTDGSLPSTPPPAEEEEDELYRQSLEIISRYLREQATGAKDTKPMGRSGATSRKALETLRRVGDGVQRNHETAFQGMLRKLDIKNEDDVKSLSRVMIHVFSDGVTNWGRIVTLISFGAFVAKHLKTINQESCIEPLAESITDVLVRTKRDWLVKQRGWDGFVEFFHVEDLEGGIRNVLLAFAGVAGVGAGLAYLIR", "assay": "In vitro Mcl-1 ubiquitination assay, reconstituted system, competition by BH3 peptides", "format": "biochemical", "details": "peptide at 4 μM", "protocol": "(§1) In vitro Ubiguitination assay: In 15 ul reaction, 200 ng of recombinant Flag-Mcl-1 is incubated with an ATP regenerating system (50 mM Tris pH 7.6, 5 mM MgCl2, 2 mM ATP, 10 mM creatine phosphate, 3.5 U/ml of creatine kinase), 10 μg of Methyl-Ubiquitin, 10 ng human E1, 100 ng Ubch7, 2 μM of ubiquitin aldehyde, and 10 μg of S100 or designated fractions, at 37° C. for one hour. After terminating the reactions with SDS sample buffer, reaction products were fractionated by SDS-PAGE (10%) and analyzed by western blotting with anti-Flag M2 antibody during purification and anti-Mcl-1 when purified components were used.\nWe used methylated ubiquitin for further biochemical analysis because it gave clearer signal. Mule ubiquitinated Mcl-1 in a dose-dependent manner, and the ubiquitination activity relied on the presence of E1 and E2.\nThe members of Bcl-2 family of proteins containing only the BH3 domain use this domain to interact with other family members. If Mule also uses its BH3 domain to interact with Mcl-1, a peptide containing this domain should compete for Mule-Mcl-1 interaction therefore blocking Mcl-1 ubiquitination in the reconstituted system. To test this hypothesis, we synthesized a 26 amino acid Mule BH3-containing peptide and a mutant peptide in which four hydrophobic residues required for protein-protein interaction were switched with […] (4E)."}, "Bax": {"biological_target": "T2, Bax (Homo sapiens, UniProt Q07812)", "T2 construct": "endogenous in cells; host or cells: HeLa S100", "T2 sequence (Q07812 whole entry, the tested form may be a part)": "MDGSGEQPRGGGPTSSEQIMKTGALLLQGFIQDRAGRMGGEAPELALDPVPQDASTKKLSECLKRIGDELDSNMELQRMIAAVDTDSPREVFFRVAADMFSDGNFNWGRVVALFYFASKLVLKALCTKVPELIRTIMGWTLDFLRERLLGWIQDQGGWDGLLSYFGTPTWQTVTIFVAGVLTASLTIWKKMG", "assay": "Biotin-labeled BH3 peptide pull down from HeLa S100", "format": "binding", "text": "(§2) To examine whether BH3 domain of Mule is sufficient for interaction with Mcl-1, we used a biotin-labeled version of the 26 amino acids Mule BH3 peptide (aa 1969-1994) and the 4E mutant to pull down proteins from cell extracts."}, "Bcl-2": {"biological_target": "T3, Bcl-2 (Homo sapiens, UniProt P10415)", "T3 construct": "endogenous in cells; host or cells: HeLa S100", "T3 sequence (P10415 whole entry)": "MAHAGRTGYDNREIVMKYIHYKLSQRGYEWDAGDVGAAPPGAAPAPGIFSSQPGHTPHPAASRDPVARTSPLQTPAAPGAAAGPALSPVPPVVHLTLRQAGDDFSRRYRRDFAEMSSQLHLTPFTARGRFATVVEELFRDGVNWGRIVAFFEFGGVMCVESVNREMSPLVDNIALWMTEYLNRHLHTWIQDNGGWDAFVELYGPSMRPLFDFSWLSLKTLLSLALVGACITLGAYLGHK", "assay": "Biotin-labeled BH3 peptide pull down from HeLa S100", "format": "binding", "text": "as §2"}, "Bcl-xL": {"biological_target": "T4, Bcl-xL (Homo sapiens, UniProt Q07817)", "T4 construct": "endogenous in cells; host or cells: HeLa S100", "T4 sequence (Q07817 whole entry)": "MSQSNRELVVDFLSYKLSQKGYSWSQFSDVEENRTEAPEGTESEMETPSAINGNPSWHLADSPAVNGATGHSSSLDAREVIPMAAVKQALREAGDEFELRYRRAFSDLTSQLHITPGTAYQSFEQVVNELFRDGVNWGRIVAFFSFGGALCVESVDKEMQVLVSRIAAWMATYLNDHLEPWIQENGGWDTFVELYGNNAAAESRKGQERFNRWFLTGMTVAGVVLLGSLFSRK", "assay": "Biotin-labeled BH3 peptide pull down from HeLa S100", "format": "binding", "text": "as §2"}, "Mcl-1 [3]": {"biological_target": "T5, Mcl-1 (Homo sapiens, UniProt Q07820)", "T5 sequence (Q07820 whole entry)": "as the sequence (Q07820 whole entry) above", "assay": "Biotin-labeled BH3 peptide pull down from HeLa S100", "format": "binding", "parameters": "endogenous in cells; host or cells: HeLa S100", "text": "as §2"}, "Mcl-1 [4]": {"biological_target": "T5, Mcl-1", "assay": "In vitro Mcl-1 ubiquitination by purified recombinant Mule", "format": "biochemical", "details": "in the presence of E1, Ubch7 (E2), ATP regenerating system; ubiquitin, methylated or GST-tagged ubiquitin", "protocol": "as §1\nThe cDNA of full-length human Mule was subcloned into Sal I and Not I sites of pFastBac-1 (Invitrogen). Mule expression baculovirus were prepared according to manufacture's manual (Bac-to-Bac Baculovirus expression system, Invitrogen, Carlsbad, Calif.). Insect cells Sf21 were infected with the P3 virus. The cells were harvested after 2 days of infection. Cell pellet was re-suspended in buffer A and homogenized with a glass douncer (pellet of 1 L culture of infected Sf21 cells was resuspended in 50 ml of buffer A). The homogenate was centrifuged at 100,000 g (SW28 rotor, 25,000 rpm) for 1 hr. The S100 (2 g total protein) were filtered and loaded onto Q column (hand-packed 36 ml of Q Sepharose XL beads). […]"}}, "note": "Ends that are not written are not given here. Peptide text beside a SMILES is read from it. * marks the point of attachment. Cbz = O=C(OCc1ccccc1)*"}
{"molecule": "CC(C)C[C@@H](C=O)NC(=O)[C@H](CC(C)C)NC(=O)[C@H](CC(C)C)NC(=O)OCc1ccccc1", "note": "[MG132] (Cbz-Leu-Leu-Leu-aldehyde)", "values": [{"measurement": "accumulation of higher molecular weight (polyubiquitinated) forms of Mcl-1", "setting": "proteasome", "value": "Higher molecular weight protein bands were detected"}, {"measurement": "amount of co-precipitated Mcl-1 and Mule", "setting": "Mcl-1 and Mule", "value": "increased"}]}
{"molecule": "N.N.[Cl][Pt][Cl]", "note": "[cisplatin]", "values": [{"measurement": "ability to induce apoptosis among the DNA damaging agents", "setting": "U2OS cells [1]; Mule knocked down", "value": "least ability to induce apoptosis"}, {"measurement": "cell death induced by the agent", "setting": "U2OS cells [1]", "value": "reduced when Mule was knocked down"}, {"measurement": "start of (weak) caspase-3 activation after treatment", "setting": "caspase-3; Mule knocked down", "value": 8, "unit": "h"}, {"measurement": "caspase-3 activation", "setting": "caspase-3; Mule knocked down, 6 hours after treatment", "value": "did not see any caspase-3 activation"}, {"measurement": "start of caspase-3 activation after treatment", "setting": "caspase-3; cells with Mule present", "value": 4, "unit": "h"}, {"measurement": "cleavage of PARP", "setting": "caspase-3; with or without Mule knocked down", "value": "showed the same pattern"}, {"measurement": "colonies relative to cells containing Mule", "setting": "U2OS cells [2]; Mule knocked down", "value": "more than nine fold more colonies"}, {"measurement": "colonies grown up", "setting": "U2OS cells [2]; cells containing Mule", "value": "few if any colonies"}]}
{"molecule": "COc1cc([C@@H]2c3cc4c(cc3[C@@H](O[C@@H]3O[C@@H]5CO[C@@H](C)O[C@H]5[C@H](O)[C@H]3O)[C@H]3COC(=O)[C@H]23)OCO4)cc(OC)c1O", "note": "[etoposide]", "values": [{"measurement": "cell death induced by the agent", "setting": "U2OS cells [1]", "value": "reduced when Mule was knocked down"}]}
{"molecule": "Mule BH3 peptide: synthesized 26 amino acid Mule BH3-containing peptide (aa 1969-1994); biotin-labeled version used for pull down (PGVMTQEVGQLLQDMGDDVYQQYRSL; also: biotin-labeled (position not given here); UniProt Q7Z6Z7 1969-1994, looked up, fragment)", "values": [{"measurement": "block of Mcl-1 ubiquitination", "setting": "Mule (Homo sapiens)", "value": "efficiently block Mcl-1 ubiquitination"}, {"measurement": "pull down of Bax", "setting": "Bax", "value": "not Bcl-xL, Bcl-2, and Bax"}, {"measurement": "pull down of Bcl-2", "setting": "Bcl-2", "value": "not Bcl-xL, Bcl-2, and Bax"}, {"measurement": "pull down of Bcl-xL", "setting": "Bcl-xL", "value": "not Bcl-xL, Bcl-2, and Bax"}, {"measurement": "pull down of Mcl-1", "setting": "Mcl-1 [3]", "value": "specifically pulled down Mcl-1"}]}
{"molecule": "recombinant Mule: purified recombinant full-length human Mule protein, baculovirus-based expression system; Mcl-1 ubiquitin ligase E3", "values": [{"measurement": "stimulation of Mcl-1 ubiquitination", "setting": "Mcl-1 [4]", "value": "able to stimulate Mcl-1 ubiquitination"}]}
